Where a name gives a salt, the structure may show the parent alone.
What was measured:
dopamine D-2 receptor = dopamine D-2 receptor (Rattus norvegicus, UniProt P61169); assay: biochemical; type: binding; details: rat caudate, [125I]-p-aminophenylethyl spiroperidol; read-out: D-2 Ki
Experimental: Homogenized rat caudate was the source of the D-2 receptors. […] The molar affinity of the compound for the receptor binding site was calculated by the same method used for the D-1 receptor assay, assuming a competitive interaction between the compound and the radiolabeled ligand.

dopamine D-1 receptor [1] = details: for Intrinsic Activity (adenylate cyclase assay): dopamine = 100, goldfish retina or rat striatum; for EC50: read-out: EC50 (agonist activity in adenylate cyclase assay), tissue from goldfish retina or rat striatum
Experimental: In order to determine agonist activity, cell-free tissue homogenates are incubated in an ionic buffer solution containing ATP and the compound being evaluated. The tissue was obtained from either goldfish retina or rat striatum.

dopamine D-1 receptor [2] = biological target: dopamine D-1 receptor (Rattus norvegicus, UniProt P18901); assay: biochemical; details: D-1 Ki, rat caudate, [125I]SCH-23982
Sequence of dopamine D-1 receptor (Rattus norvegicus, UniProt P18901) (P18901 whole entry): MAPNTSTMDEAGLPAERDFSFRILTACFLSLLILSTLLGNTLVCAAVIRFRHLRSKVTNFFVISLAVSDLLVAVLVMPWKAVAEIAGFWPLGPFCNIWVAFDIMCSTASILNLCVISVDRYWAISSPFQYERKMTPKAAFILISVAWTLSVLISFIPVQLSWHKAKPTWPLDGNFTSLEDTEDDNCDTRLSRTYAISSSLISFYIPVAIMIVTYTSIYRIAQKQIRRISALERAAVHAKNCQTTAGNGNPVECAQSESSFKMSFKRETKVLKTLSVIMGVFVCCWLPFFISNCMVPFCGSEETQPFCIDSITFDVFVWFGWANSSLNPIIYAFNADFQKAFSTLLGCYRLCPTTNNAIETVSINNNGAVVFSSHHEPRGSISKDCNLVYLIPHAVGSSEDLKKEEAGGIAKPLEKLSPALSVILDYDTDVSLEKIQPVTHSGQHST
Excerpt: The compounds compete with the radiolabeled ligand for occupancy of the receptors and the molar potency of each compound was quantified.
The Ki values are inversely proportional to the affinity of the compound for the receptor.

Sequence of dopamine D-2 receptor (P61169 whole entry): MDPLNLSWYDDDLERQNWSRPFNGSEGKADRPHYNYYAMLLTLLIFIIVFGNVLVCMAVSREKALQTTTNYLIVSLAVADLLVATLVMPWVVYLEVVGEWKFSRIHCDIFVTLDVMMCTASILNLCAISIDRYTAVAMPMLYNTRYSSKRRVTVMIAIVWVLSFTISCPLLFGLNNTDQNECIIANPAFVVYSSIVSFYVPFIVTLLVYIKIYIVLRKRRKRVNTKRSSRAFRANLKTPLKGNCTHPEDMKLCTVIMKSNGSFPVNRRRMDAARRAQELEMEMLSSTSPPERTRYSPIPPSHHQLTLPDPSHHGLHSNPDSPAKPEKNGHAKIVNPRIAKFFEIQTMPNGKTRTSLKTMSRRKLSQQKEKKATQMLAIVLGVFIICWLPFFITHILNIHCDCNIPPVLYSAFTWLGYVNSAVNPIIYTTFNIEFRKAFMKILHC

Compound | Ki (dopamine D-2 receptor) | Intrinsic Activity (adenylate cyclase assay) (dopamine D-1 receptor [1]) | EC50 (dopamine D-1 receptor [1]) | Ki (dopamine D-1 receptor [2])
NC[C@@H]1O[C@H](CCC2CCCCC2)Cc2c1ccc(O)c2O (relative stereo) [Example 91] | > 10 µM | 135 | 670 nM | 290 nM
NC[C@H]1O[C@@H](COc2ccccc2-c2ccccc2)Cc2c1ccc(O)c2O (relative stereo) [Example 56] | 1.3 µM | 46 | 430 nM | 2200 nM
NCC1=CC2(CCCCCCCCC2)Cc2c1ccc(O)c2O [Example 234] | > 10 µM | 53 | 2700 nM | 3900 nM
CNC[C@H]1C[C@@H](c2ccccc2)Cc2c1ccc(O)c2O (relative stereo) [Example 150, [1,3-cis]5,6,Dihydroxy-1-(N-methyl)aminomethyl-3-phenyl-1,2,3,4-tetrahydro-naphthalene] | 12 µM | 102 | 6 nM | 25 nM
CN(C)C[C@@H]1O[C@H](C2(c3ccccc3)CCCCC2)Cc2c1ccc(O)c2O (relative stereo) [Example 229] | 3.6 µM | 34 | 330 nM | 260 nM
NC[C@H]1C[C@@H](c2ccc3ccccc3c2)Cc2c1ccc(O)c2O (relative stereo) [Example 43] | 12 µM | 70 | 150 nM | 2400 nM
NCC1=CC2(CCCCC2)Cc2c1ccc(O)c2O [Example 189] | > 10 µM | 65 | 1500 nM | 3300 nM
CCC(C)C(C)[C@@H]1Cc2c(ccc(O)c2O)[C@H](CN)O1 (stereo partly shown) [Example 72] | 8.2 µM | 80 | 170 nM | 15 nM
NC[C@@H]1O[C@H](C2CCCCC2)CCc2c1ccc(O)c2O (relative stereo) [Example 176, [1,3-cis]1-Aminomethyl-3-cyclohexyl-6,7-dihydroxy-1,3,4,5-tetrahydro-2-benzoxepin Hydrochloride] | 2.6 µM | 90 | 320 nM | 650 nM
NC[C@H]1O[C@@H](CN2CCCCC2)Cc2c1ccc(O)c2O (relative stereo) [Example 158] | 6 µM | 100 | 330 nM | 2300 nM
COC(=O)Oc1ccc2c(c1OC(=O)OC)CC(c1ccccc1)C=C2CN (stereo not shown) [Example 23] | > 10 µM | 65 | 1100 nM | 500 nM
NCC1CC2(CCCC2)Cc2c1ccc(O)c2O (stereo not shown) [Example 196] | > 10 µM | 80 | 1100 nM | 6000 nM
NC[C@H]1O[C@@H](CNC(=O)c2ccc(Br)cc2)Cc2c1ccc(O)c2O (relative stereo) [Example 167] | 0.0021 µM | 125 | 120 nM | 310 nM
NC[C@H]1O[C@@H](CN2CCCC2)Cc2c1ccc(O)c2O (relative stereo) [Example 156, [1,3-cis]1-Aminomethyl-3,4-dihydro-5,6-dihydroxy-3-pyrrolidinylmethyl-1H-2-benzopyran Dihydrochloride] | 16 µM | 127 | 9500 nM | 6300 nM
NCC1CC2(CCCCCC2)Cc2c1ccc(O)c2O (stereo not shown) [Example 193] | 3.2 µM | 63 | 680 nM | 650 nM
COc1cccc([C@@H]2Cc3c(ccc(O)c3O)[C@H](CN)O2)c1 (relative stereo) [Example 82] | 0.82 µM | 107 | 7 nM | 11 nM

Compound | Ki (dopamine D-2 receptor) | Intrinsic Activity (adenylate cyclase assay) (dopamine D-1 receptor [1]) | EC50 (dopamine D-1 receptor [1]) | Ki (dopamine D-1 receptor [2])
COc1ccc(OC[C@H]2Cc3c(ccc(O)c3O)[C@@H](CN)O2)cc1 (relative stereo) [Example 53] | 0.65 µM | 67 | 23 nM | 250 nM
NC[C@@H]1O[C@H](c2ccc(I)cc2)Cc2c1ccc(O)c2O (relative stereo) [Example 80] | 1.1 µM | 161 | 8 nM | 14 nM
CCCC(=O)NC[C@@H]1Cc2c(ccc(O)c2O)[C@H](CN)O1 (relative stereo) [Example 169] | > 10 µM | 150 | 200 nM | 8000 nM
NC[C@H]1O[C@@H](CNC(=O)c2ccco2)Cc2c1ccc(O)c2O (relative stereo) [Example 168] | > 10 µM | 103 | 270 nM | 17000 nM
C=CCNC[C@H]1O[C@@H](C23CC4CC(CC(C4)C2)C3)Cc2c1ccc(O)c2O (relative stereo) [Example 117] | 1 µM | 60 | 80 nM | 1200 nM
NC[C@@H]1O[C@H](CC2CCCC2)Cc2c1ccc(O)c2O (relative stereo) [Example 78] | 0.81 µM | 147 | 15 nM | 49 nM
NC[C@@H]1O[C@H](C2CCCCC2)Cc2c1ccc1c2OC2(CCCCC2)O1 (relative stereo) [Example 63] | > 10 µM | 43 | 710 nM | 71000 nM
CCCCCCCCCC[C@@H]1Cc2c(ccc(O)c2O)[C@H](CN)O1 (relative stereo) [Example 65] | 16 µM | 91 | 320 nM | 14000 nM
NC[C@H]1O[C@@H](c2cccc(C(F)(F)F)c2)Cc2c1ccc(O)c2O (relative stereo) [Example 99] | 8.9 µM | 134 | 5 nM | 22 nM
NC[C@@H]1O[C@H](Cc2ccccc2)Cc2c1ccc(O)c2O (relative stereo) [Example 60] | 2.2 µM | 93 | 37 nM | 530 nM
CCCCC1Cc2c(ccc(O)c2O)C2=C1CCNC2 (stereo not shown) [Example 243] | 3 µM | 83 | 950 nM | 70 nM
NC[C@@H]1O[C@H](COCc2ccccc2)Cc2c1ccc(O)c2O (relative stereo) [Example 75] | 4.6 µM | 60 | 290 nM | 480 nM
NCCC(=O)Oc1ccc2c(c1OC(=O)CCN)CC(c1ccccc1)C=C2CN (stereo not shown) [Example 27] | 6.6 µM | – | 200 nM | > 10000 nM
C=CCC[C@H]1Cc2c(ccc(O)c2O)[C@@H](CNC)O1 (relative stereo) [Example 132] | 0.64 µM | 106 | 870 nM | 86 nM
CC(C)C(=O)Oc1ccc2c(c1OC(=O)C(C)C)CC(c1ccccc1)C=C2CN (stereo not shown) [Example 18] | > 10 µM | 46 | 1500 nM | 1300 nM
CCNC[C@@H]1O[C@H](C(C)(C)C)Cc2c1ccc(O)c2O [Example 128] | 23 µM | 108 | 87 nM | 570 nM

— patent US5621133A (priority 1995, dated 1997)
